Reference: PubChem BioAssay AID220 (DTP/NCI, 2004)
Values joined by “and” are separate entries in the source; they are usually repeats but may differ in a detail not shown here. Identical values can stand only once. Records with an inconclusive call do not appear.

Tested on: CD8F1 mice, subcutaneous mammary adenocarcinoma, T/C%
Test: NCI In Vivo Anticancer Drug Screen. Data for tumor model Mammary Adenocarcinoma CD8F1 (subcutaneous) in CD8F1
Details: higher = larger tumour
Procedure, shortened: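 Transplantable tumors were established in mice, animals were dosed with compound or vehicle, and survival or tumor size was then measured in both groups. The treated result was divided by the control result.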

[1] = endpoint: mean tumor weight, dose: 25.0 mg/kg/injection, schedule: Q07DX007 (ip), vehicle: saline
[2] = endpoint: mean tumor weight, dose: 75.0 mg/kg/injection, schedule: Q07DX007 (ip), vehicle: saline
[3] = endpoint: median tumor weight (est.), dose: 200.0 mg/kg/injection, schedule: Q07DX005 (ip), vehicle: saline
[4] = endpoint: median tumor weight (est.), dose: 25.0 mg/kg/injection, schedule: Q07DX005 (ip), vehicle: saline with Tween-80
[5] = endpoint: median tumor weight (est.), dose: 50.0 mg/kg/injection, schedule: Q07DX005 (ip), vehicle: saline with Tween-80
[6] = endpoint: median tumor weight (est.), dose: 100.0 mg/kg/injection, schedule: Q07DX005 (ip), vehicle: saline with Tween-80

SMILES: O=c1cc[nH]c(=O)o1
- T/C (endpoint: mean tumor weight, dose: 5.0 mg/kg/injection, schedule: Q04DX008 (ip), vehicle: water): 75 % of control
- T/C (endpoint: mean tumor weight, dose: 10.0 mg/kg/injection, schedule: Q04DX008 (ip), vehicle: water): 109 % of control
- T/C (endpoint: mean tumor weight, dose: 20.0 mg/kg/injection, schedule: Q04DX008 (ip), vehicle: water): 70 % of control
- T/C (endpoint: mean tumor weight, dose: 25.0 mg/kg/injection, schedule: Q07DX005 (ip), vehicle: saline): 112 % of control
- T/C [1]: 152 % of control
- T/C (endpoint: mean tumor weight, dose: 50.0 mg/kg/injection, schedule: Q07DX005 (ip), vehicle: saline): 54 % of control
- T/C (endpoint: mean tumor weight, dose: 50.0 mg/kg/injection, schedule: Q07DX007 (ip), vehicle: saline): 87 % of control
- T/C [2]: 46 % of control
- T/C (endpoint: median tumor weight (est.), dose: 12.2 mg/kg/injection, schedule: Q07DX005 (ip), vehicle: saline): 62 % of control
- T/C (endpoint: median tumor weight (est.), dose: 28.0 mg/kg/injection, schedule: Q07DX005 (ip), vehicle: saline): 83 % of control
- T/C (endpoint: median tumor weight (est.), dose: 42.0 mg/kg/injection, schedule: Q07DX005 (ip), vehicle: saline): 118 % of control
- T/C (endpoint: median tumor weight (est.), dose: 63.0 mg/kg/injection, schedule: Q07DX005 (ip), vehicle: saline): 67 % of control

SMILES: COc1ccc2[nH]c3ccc4cc[n+](CCN5CCC(C6CCN(CC[n+]7ccc8ccc9[nH]c%10ccc(OC)cc%10c9c8c7)CC6)CC5)cc4c3c2c1
- T/C (endpoint: median tumor weight change, dose: 62.5 mg/kg/injection, schedule: Q01DX001 (ip), vehicle: Klucel (hydroxypropylcellulose) (HPC)): 58 % of control
- T/C (endpoint: median tumor weight change, dose: 125.0 mg/kg/injection, schedule: Q01DX001 (ip), vehicle: Klucel (hydroxypropylcellulose) (HPC)): 68 % of control

SMILES: NC(Cn1ccc(=O)c(O)c1)C(=O)O (stereo unspecified)
- T/C (endpoint: median tumor weight change, dose: 100.0 mg/kg/injection, schedule: Q01DX001 (ip), vehicle: saline): 82 % of control
- T/C (endpoint: median tumor weight change, dose: 200.0 mg/kg/injection, schedule: Q01DX001 (ip), vehicle: saline): 69 % of control
- T/C (endpoint: median tumor weight change, dose: 400.0 mg/kg/injection, schedule: Q01DX001 (ip), vehicle: saline): 52 % of control
- T/C (endpoint: median tumor weight change, dose: 1600.0 mg/kg/injection, schedule: Q01DX001 (ip), vehicle: saline): 72 % of control

SMILES: COC1=C(NC(C)=O)C(=O)c2nc(-c3nc(C(=O)O)c(C)c(-c4ccc(OC)c(OC)c4O)c3N)ccc2C1=O
- T/C (endpoint: median tumor weight change, dose: 12.5 mg/kg/injection, schedule: Q01DX001 (ip), vehicle: Klucel (hydroxypropylcellulose) (HPC)): 171 % of control

SMILES: CC[PH+](CC)CC[S-].CC[PH+](CC)CC[S-].[Au+].[Au+]
- T/C (endpoint: median tumor weight change, dose: 100.0 mg/kg/injection, schedule: Q01DX001 (ip), vehicle: Klucel (hydroxypropylcellulose) (HPC)): 29 % of control and 34 % of control
- T/C (endpoint: median tumor weight change, dose: 200.0 mg/kg/injection, schedule: Q01DX001 (ip), vehicle: Klucel (hydroxypropylcellulose) (HPC)): 24 % of control

SMILES: COc1cc2c[n+](C)c3c4cc5c(cc4ccc3c2cc1OC)OCO5
- T/C (endpoint: median tumor weight (est.), dose: 10.0 mg/kg/injection, schedule: Q07DX005 (ip), vehicle: saline with Tween-80): 78 % of control
- T/C (endpoint: median tumor weight (est.), dose: 40.0 mg/kg/injection, schedule: Q07DX005 (ip), vehicle: saline with Tween-80): 31 % of control
- T/C (endpoint: median tumor weight (est.), dose: 80.0 mg/kg/injection, schedule: Q07DX005 (ip), vehicle: saline with Tween-80): 4 % of control

SMILES: Nc1ccn(C2OC(CO)C(O)C2O)c(=O)n1 (stereo unspecified)
- T/C (endpoint: mean tumor weight, dose: 18.75 mg/kg/injection, schedule: Q01DX009 (ip), vehicle: saline): 84 % of control
- T/C [1]: 101 % of control
- T/C (endpoint: mean tumor weight, dose: 37.5 mg/kg/injection, schedule: Q01DX009 (ip), vehicle: saline): 39 % of control
- T/C (endpoint: mean tumor weight, dose: 75.0 mg/kg/injection, schedule: Q07DX005 (ip), vehicle: saline): 89 % of control
- T/C [2]: 98 % of control
- T/C (endpoint: mean tumor weight, dose: 150.0 mg/kg/injection, schedule: Q07DX005 (ip), vehicle: saline): 89 % of control
- T/C (endpoint: mean tumor weight, dose: 300.0 mg/kg/injection, schedule: Q07DX005 (ip), vehicle: saline): 100 % of control
- T/C (endpoint: median tumor weight (est.), dose: 75.0 mg/kg/injection, schedule: Q04DX005 (ip), vehicle: saline): 31 % of control and 55 % of control
- T/C (endpoint: median tumor weight (est.), dose: 130.0 mg/kg/injection, schedule: Q07DX005 (ip), vehicle: saline): 79 % of control
- T/C (endpoint: median tumor weight (est.), dose: 150.0 mg/kg/injection, schedule: Q04DX005 (ip), vehicle: saline): 50 % of control and 53 % of control
- T/C (endpoint: median tumor weight (est.), dose: 150.0 mg/kg/injection, schedule: Q07DX004 (ip), vehicle: saline): 22 % of control and 41 % of control
- T/C [3]: 73 % of control
- T/C (endpoint: median tumor weight (est.), dose: 300.0 mg/kg/injection, schedule: Q07DX005 (ip), vehicle: saline): 48 % of control
- T/C (endpoint: median tumor weight (est.), dose: 450.0 mg/kg/injection, schedule: Q07DX005 (ip), vehicle: saline): 75 % of control
- T/C (endpoint: median tumor weight (est.), dose: 600.0 mg/kg/injection, schedule: Q07DX005 (ip), vehicle: saline with Tween-80): 34 % of control and 45 % of control
- T/C (endpoint: median tumor weight (est.), dose: 790.0 mg/kg/injection, schedule: Q01DX001 (ip), vehicle: saline): 74 % of control
- T/C (endpoint: median tumor weight (est.), dose: 1180.0 mg/kg/injection, schedule: Q01DX001 (ip), vehicle: saline): 54 % of control
- T/C (endpoint: median tumor weight (est.), dose: 1200.0 mg/kg/injection, schedule: Q07DX005 (ip), vehicle: saline with Tween-80): 6 % of control and 18 % of control
- T/C (endpoint: median tumor weight (est.), dose: 1750.0 mg/kg/injection, schedule: Q01DX001 (ip), vehicle: saline): 54 % of control
- T/C (endpoint: median tumor weight (est.), dose: 2500.0 mg/kg/injection, schedule: Q01DX001 (ip), vehicle: saline): 62 % of control
- T/C (endpoint: median tumor weight change, dose: 790.0 mg/kg/injection, schedule: Q01DX001 (ip), vehicle: water): 48 % of control
- T/C (endpoint: median tumor weight change, dose: 1180.0 mg/kg/injection, schedule: Q01DX001 (ip), vehicle: water): 77 % of control
- T/C (endpoint: median tumor weight change, dose: 1750.0 mg/kg/injection, schedule: Q01DX001 (ip), vehicle: water): 57 % of control
- T/C (endpoint: median tumor weight change, dose: 2500.0 mg/kg/injection, schedule: Q01DX001 (ip), vehicle: water): 33 % of control

SMILES: C=CC12COC(=O)C(=C)C1C1OC(=O)C(=C)C1C(O)C2 (stereo unspecified)
- T/C (endpoint: mean tumor weight, dose: 5.0 mg/kg/injection, schedule: Q07DX006 (ip), vehicle: saline): 78 % of control

SMILES: NC(=O)c1ncn(C2OC(CO)C(O)C2O)c1O (stereo unspecified)
- T/C (endpoint: median tumor weight (est.), dose: 50.0 mg/kg/injection, schedule: Q07DX005 (ip), vehicle: Klucel (hydroxypropylcellulose) (HPC)): 85 % of control
- T/C (endpoint: median tumor weight (est.), dose: 100.0 mg/kg/injection, schedule: Q07DX005 (ip), vehicle: Klucel (hydroxypropylcellulose) (HPC)): 105 % of control
- T/C (endpoint: median tumor weight (est.), dose: 200.0 mg/kg/injection, schedule: Q07DX005 (ip), vehicle: Klucel (hydroxypropylcellulose) (HPC)): 72 % of control
- T/C (endpoint: median tumor weight (est.), dose: 400.0 mg/kg/injection, schedule: Q07DX005 (ip), vehicle: Klucel (hydroxypropylcellulose) (HPC)): 83 % of control

SMILES: CCOC(C)C(/C=N/NC(N)=S)=NNC(N)=S (stereo unspecified)
- T/C [4]: 87 % of control and 109 % of control
- T/C [5]: 85 % of control and 88 % of control
- T/C [6]: 78 % of control and 96 % of control

SMILES: COc1ccc2cc1Oc1ccc(cc1)C[C@H]1c3cc(c(OC)cc3CCN1C)Oc1c(OC)c(OC)cc3c1[C@H](C2)N(C)CC3
- T/C [4]: 115 % of control
- T/C [5]: 102 % of control
- T/C [6]: 117 % of control
- T/C (endpoint: median tumor weight (est.), dose: 200.0 mg/kg/injection, schedule: Q07DX005 (ip), vehicle: saline with Tween-80): 64 % of control
- T/C (endpoint: median tumor weight (est.), dose: 400.0 mg/kg/injection, schedule: Q07DX005 (ip), vehicle: saline with Tween-80): 37 % of control

SMILES: N/C=N/O
- T/C (endpoint: median tumor weight (est.), dose: 25.0 mg/kg/injection, schedule: Q07DX005 (ip), vehicle: saline): 109 % of control
- T/C (endpoint: median tumor weight (est.), dose: 50.0 mg/kg/injection, schedule: Q07DX005 (ip), vehicle: saline): 181 % of control
- T/C (endpoint: median tumor weight (est.), dose: 100.0 mg/kg/injection, schedule: Q07DX005 (ip), vehicle: saline): 164 % of control
- T/C [3]: 105 % of control
- T/C (endpoint: median tumor weight (est.), dose: 400.0 mg/kg/injection, schedule: Q07DX005 (ip), vehicle: saline): 97 % of control
- T/C (endpoint: median tumor weight (est.), dose: 600.0 mg/kg/injection, schedule: Q07DX005 (ip), vehicle: saline): 78 % of control

SMILES: NC(CNC(=O)CBr)C(=O)O (stereo unspecified)
- T/C (endpoint: median tumor weight change, dose: 62.5 mg/kg/injection, schedule: Q01DX001 (ip), vehicle: water): 95 % of control
- T/C (endpoint: median tumor weight change, dose: 125.0 mg/kg/injection, schedule: Q01DX001 (ip), vehicle: water): 77 % of control

SMILES: CN(C)c1ccc2c(NCCCCCCNc3ccnc4cc(N(C)C)ccc34)ccnc2c1
- T/C (endpoint: median tumor weight change, dose: 15.62 mg/kg/injection, schedule: Q01DX001 (ip), vehicle: distilled water + Tween-80 + alcohol): 66 % of control
- T/C (endpoint: median tumor weight change, dose: 31.0 mg/kg/injection, schedule: Q01DX001 (ip), vehicle: distilled water + Tween-80 + alcohol): 94 % of control
- T/C (endpoint: median tumor weight change, dose: 31.25 mg/kg/injection, schedule: Q01DX001 (ip), vehicle: distilled water + Tween-80 + alcohol): 96 % of control
- T/C (endpoint: median tumor weight change, dose: 62.5 mg/kg/injection, schedule: Q01DX001 (ip), vehicle: distilled water + Tween-80 + alcohol): 3 % of control
- T/C (endpoint: median tumor weight change, dose: 62.5 mg/kg/injection, schedule: Q01DX001 (ip), vehicle: distilled water + Tween-80): 48 % of control
- T/C (endpoint: median tumor weight change, dose: 125.0 mg/kg/injection, schedule: Q01DX001 (ip), vehicle: distilled water + Tween-80 + alcohol): 51 % of control
- T/C (endpoint: median tumor weight change, dose: 250.0 mg/kg/injection, schedule: Q01DX001 (ip), vehicle: distilled water + Tween-80 + alcohol): 8 % of control and 28 % of control
